Patent US11254663B2 (BRISTOL-MYERS SQUIBB COMPANY, priority 2019, dated 2022)

biological target: FXR (Homo sapiens (Human), UniProt Q96RI1); experiment: transient human FXR/Gal4-luciferase reporter assay; format: cell-based; conditions: not given
Method: A Gal4-hFXR fusion construct reporter system was used as the primary assay to characterize compound activity. A construct including 5 copies of the Gal4 promoter response element upstream of a firefly luciferase reporter cDNA was stably expressed in HEK293 cells. This reporter cell line was maintained in Dulbecco's Modified Eagle's medium (DMEM; Gibco) supplemented with 1% penicillin-streptomycin (P/S) solution, 500 μg/mL Zeocin and 10% charcoal/dextran-treated fetal bovine serum (cs-FBS) at 37° C. in a humidified 5% CO2 atmosphere. Another plasmid was constructed in which the human cytomegalovirus promoter in the pcDNA3.1 vector directs the expression of the cDNA encoding a fusion protein comprised of the DNA binding domain from the Gal4 transcription factor fused to the ligand binding domain from human FXR.
The day prior to transfection, the reporter cells in culture are detached from the plate with trypsin and plated into a T75 flask at a sufficient density to achieve approximately 90% confluence the next morning. The transfection reagents are prepared by separately diluting 25 μg of the pcDNA3.1-Gal4-FXR plasmid into 1.87 mL of Opti-MEM (Thermo-Fisher), and 40 μL of Lipofectamine 2000 (Thermo-Fisher) into 1.87 mL of Opti-MEM, and then adding the diluted DNA solution into the diluted Lipofectamine 2000 solution and incubating at room temperature for 15-20 minutes. The mixture is further diluted with 10 mL of a solution comprised of DMEM, 10% cs-FBS, and 1% P/S immediately prior to transferring to the cells. The maintenance culture media is aspirated from the cells and the final transfection mixture is added before the cells are incubated overnight at 37° C. in a humidified 5% CO2 atmosphere. This protocol can be scaled up, and the transiently transfected cells can be cryopreserved in an assay-ready format.
For compound testing, 100 nL of the compounds (serial dilutions in DMSO) are dispensed with an Echo acoustic dispenser (Labcyte) into the wells of a Corning/Costar clear bottom 384-well white plate. The transfected cells are harvested, counted, and diluted such that 10-25,000 cells in 25 μL are plated into each well of the 384-well compound assay plate. The compound-treated cells are incubated overnight at 37° C. in a humidified 5% CO2 atmosphere. The next morning 25 μL of Steady-Glo (Promega) are added to each well of the plate, the mixture is incubated for 15 min. with shaking, and luminescence is measured on an Envision (Perkin Elmer) plate reader.

FXR, sequence (Q96RI1 262-486): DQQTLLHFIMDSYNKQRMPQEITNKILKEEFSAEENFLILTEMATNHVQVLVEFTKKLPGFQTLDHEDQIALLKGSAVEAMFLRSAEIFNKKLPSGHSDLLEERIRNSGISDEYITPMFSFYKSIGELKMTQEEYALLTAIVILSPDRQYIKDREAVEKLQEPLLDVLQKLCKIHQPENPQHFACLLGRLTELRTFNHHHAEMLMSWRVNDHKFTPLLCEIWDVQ

| Compound | EC50 |
| --- | --- |
| CS(=O)(=O)Nc1ccc(-c2cccc(N(CC34CCC(c5nc(C(F)F)no5)(CC3)CC4)C(=O)C34CC(F)(C3)C4)c2)cc1 [Example 469, N-((4-(3-(difluoromethyl)-1,2,4-oxadiazol-5-yl)bicyclo[2.2.2]octan-1-yl)methyl)-3-fluoro-N-(4′-(methylsulfonamido)-[1,1′-biphenyl]-3-yl)bicyclo[1.1.1]pentane-1-carboxamide] | 0.654 µM |
| CS(=O)(=O)Nc1ccc(-c2cccc(N(CC34CCC(c5noc(C(F)F)n5)(CC3)CC4)C(=O)C34CC(F)(C3)C4)c2)cc1 [Example 460, N-((4-(5-(difluoromethyl)-1,2,4-oxadiazol-3-yl)bicyclo[2.2.2]octan-1-yl)methyl)-3-fluoro-N-(4′-(methylsulfonamido)-[1,1′-biphenyl]-3-yl)bicyclo[1.1.1]pentane-1-carboxamide] | 0.338 µM |
| Cc1nc2ccc(-c3cccc(N(CC45CCC(c6noc(C(F)F)n6)(CC4)CC5)C(=O)C45CC(F)(C4)C5)c3)cc2s1 [Example 462, N-((4-(5-(difluoromethyl)-1,2,4-oxadiazol-3-yl)bicyclo[2.2.2]octan-1-yl)methyl)-3-fluoro-N-(3-(2-methylbenzo[d]thiazol-6-yl)phenyl)bicyclo[1.1.1]pentane-1-carboxamide] | 0.107 µM |
| O=C(N(CC12CCC(c3noc(C4(C(F)(F)F)CC4)n3)(CC1)CC2)c1cccc(-c2ccc(OC(F)F)cc2)c1)C12CC(F)(C1)C2 [Example 522, N-(4′-(difluoromethoxy)-[1,1′-biphenyl]-3-yl)-3-fluoro-N-((4-(5-(1-(trifluoromethyl)cyclopropyl)-1,2,4-oxadiazol-3-yl)bicyclo[2.2.2]octan-1-yl)methyl)bicyclo[1.1.1]pentane-1-carboxamide] | 0.069 µM |
| CCOc1ncc(-c2cccc(N(CC34CCC(c5nc(C(C)(C)C)no5)(CC3)CC4)C(=O)C34CC(NC(=O)OC(C)(C)C)(C3)C4)c2)cn1 [Example 505, tert-butyl (3-(((4-(3-(tert-butyl)-1,2,4-oxadiazol-5-yl)bicyclo[2.2.2]octan-1-yl)methyl) (3-(2-ethoxypyrimidin-5-yl)phenyl)carbamoyl)bicyclo[1.1.1]pentan-1-yl)carbamate] | 0.621 µM |

same assay, conditions: Gal4-hFXR fusion construct, HEK293 reporter cells; response relative to 8 μM GW-4064

| Compound | EC50 |
| --- | --- |
| CCOc1cnc(-c2cccc(N(CC34CCC(c5nc(C6CC6)no5)(CC3)CC4)C(=O)C34CC(F)(C3)C4)c2)nc1 [Example 333, N-((4-(3-cyclopropyl-1,2,4-oxadiazol-5-yl)bicyclo[2.2.2]octan-1-yl)methyl)-N-(3-(5-ethoxypyrimidin-2-yl)phenyl)-3-fluorobicyclo[1.1.1]pentane-1-carboxamide] | 0.302 µM |
| CO[C@H]1C[C@@H](C(=O)N(CC23CCC(c4noc(C(C)(C)C)n4)(CC2)CC3)c2cccc(-c3ccc(NS(C)(=O)=O)cc3)c2)C1 [Example 514, (1S,3S)—N-((4-(5-(tert-butyl)-1,2,4-oxadiazol-3-yl)bicyclo[2.2.2]octan-1-yl)methyl)-3-methoxy-N-(4′-(methylsulfonamido)-[1,1′-biphenyl]-3-yl)cyclobutane-1-carboxamide] | 2.26 µM |
| O=C(N(CC12CCC(c3nc(C4CC4)no3)(CC1)CC2)c1cccc(-c2cc(Cl)cc(Cl)c2)c1)C12CC(F)(C1)C2 [Example 250, N-((4-(3-cyclopropyl-1,2,4-oxadiazol-5-yl)bicyclo[2.2.2]octan-1-yl)methyl)-N-(3′,5′-dichloro-[1,1′-biphenyl]-3-yl)-3-fluorobicyclo[1.1.1]pentane-1-carboxamide] | 0.778 µM |
| CC(C)(C)NC(=O)N(CC12CCC(c3noc(C(F)(F)F)n3)(CC1)CC2)c1cccc(-c2ccc(OC(F)F)cc2)c1 [Example 612, 3-(tert-butyl)-1-(4′-(difluoromethoxy)-[1,1′-biphenyl]-3-yl)-1-((4-(5-(trifluoromethyl)-1,2,4-oxadiazol-3-yl)bicyclo[2.2.2]octan-1-yl)methyl)urea] | 0.065 µM |
| CC(C)(C)c1nc(C23CCC(CN(c4cccc(-c5ccc(NS(C)(=O)=O)cc5)c4)C(=O)[C@H]4C[C@@](C)(O)C4)(CC2)CC3)no1 [Example 512, (cis)-N-((4-(5-(tert-butyl)-1,2,4-oxadiazol-3-yl)bicyclo[2.2.2]octan-1-yl)methyl)-3-hydroxy-3-methyl-N-(4′-(methylsulfonamido)-[1,1′-biphenyl]-3-yl)cyclobutane-1-carboxamide] | 0.909 µM |
| CC(C)(O)c1cnc(-c2ccnc(N(CC34CCC(c5ccc(C(C)(F)F)cn5)(CC3)CC4)C(=O)OC(C)(C)C(F)(F)F)c2)nc1 [Example 608, 1,1,1-trifluoro-2-methylpropan-2-yl ((4-(5-(1,1-difluoroethyl)pyridin-2-yl)bicyclo[2.2.2]octan-1-yl)methyl)(4-(5-(2-hydroxypropan-2-yl)pyrimidin-2-yl)pyridin-2-yl) carbamate] | 0.301 µM |
| COc1cc(-c2ccnc(N(CC34CCC(c5nc(C6CC6)no5)(CC3)CC4)C(=O)C34CC(F)(C3)C4)c2)ccn1 [Example 340, N-((4-(3-cyclopropyl-1,2,4-oxadiazol-5-yl)bicyclo[2.2.2]octan-1-yl)methyl)-3-fluoro-N-(2′-methoxy-[4,4′-bipyridin]-2-yl)bicyclo[1.1.1]pentane-1-carboxamide] | 0.398 µM |
| Cc1cnn2c(-c3cccc(N(CC45CCC(c6nc(C7CC7)no6)(CC4)CC5)C(=O)C45CC(F)(C4)C5)c3)cnc2c1 [Example 319, N-((4-(3-cyclopropyl-1,2,4-oxadiazol-5-yl)bicyclo[2.2.2]octan-1-yl)methyl)-3-fluoro-N-(3-(7-methylimidazo[1,2-b]pyridazin-3-yl)phenyl)bicyclo[1.1.1]pentane-1-carboxamide] | 0.161 µM |
| O=C(N(CC12CCC(c3nc(C4CC4)no3)(CC1)CC2)c1cccc(-c2ccc(C(F)(F)F)nc2)c1)C12CC(F)(C1)C2 [Example 280, N-((4-(3-cyclopropyl-1,2,4-oxadiazol-5-yl)bicyclo[2.2.2]octan-1-yl)methyl)-3-fluoro-N-(3-(6-(trifluoromethyl)pyridin-3-yl)phenyl)bicyclo[1.1.1]pentane-1-carboxamide] | 0.308 µM |
| CC(C)Oc1ccc(-c2cccc(N(CC34CCC(c5cc(C(C)(F)F)on5)(CC3)CC4)C(=O)OC(C)(C)C(F)(F)F)c2)cc1 [Example 656, 1,1,1-trifluoro-2-methylpropan-2-yl ((4-(5-(1,1-difluoroethyl)isoxazol-3-yl)bicyclo[2.2.2]octan-1-yl)methyl)(4′-isopropoxy-[1,1′-biphenyl]-3-yl)carbamate] | 1.06 µM |
| CCOc1ccc(-c2cncc(N(CC34CCC(c5nc(C6CC6)no5)(CC3)CC4)C(=O)C34CC(F)(C3)C4)c2)cc1 [Example 424, N-((4-(3-cyclopropyl-1,2,4-oxadiazol-5-yl)bicyclo[2.2.2]octan-1-yl)methyl)-N-(5-(4-ethoxyphenyl)pyridin-3-yl)-3-fluorobicyclo[1.1.1]pentane-1-carboxamide] | 0.483 µM |
| CCc1cnc(-c2cccc(N(CC34CCC(c5noc(C(C)(C)C)n5)(CC3)CC4)C(=O)C34CC(F)(C3)C4)c2)nc1 [Example 453, N-((4-(5-(tert-butyl)-1,2,4-oxadiazol-3-yl)bicyclo[2.2.2]octan-1-yl)methyl)-N-(3-(5-ethylpyrimidin-2-yl)phenyl)-3-fluorobicyclo[1.1.1]pentane-1-carboxamide] | 0.034 µM |
| CC(C)c1noc(C23CCC(CN(C(=O)C45CC(F)(C4)C5)c4cccc(-c5ccc(NS(=O)(=O)C(F)(F)F)cc5)c4)(CC2)CC3)n1 [Example 390, 3-fluoro-N-((4-(3-isopropyl-1,2,4-oxadiazol-5-yl)bicyclo[2.2.2]octan-1-yl)methyl)-N-(4′-((trifluoromethyl)sulfonamido)-[1,1′-biphenyl]-3-yl)bicyclo[1.1.1]pentane-1-carboxamide] | 0.096 µM |
| CCOc1cnc(-c2cccc(N(CC34CCC(c5nc(C(C)C)no5)(CC3)CC4)C(=O)C34CC(F)(C3)C4)c2)nc1 [Example 395, N-(3-(5-ethoxypyrimidin-2-yl)phenyl)-3-fluoro-N-((4-(3-isopropyl-1,2,4-oxadiazol-5-yl)bicyclo[2.2.2]octan-1-yl)methyl)bicyclo[1.1.1]pentane-1-carboxamide] | 0.156 µM |
| O=C(N(CC12CCC(c3nc(C4CC4)no3)(CC1)CC2)c1cccc(-c2ccc(NS(=O)(=O)C3CC3)cc2)c1)C12CC(F)(C1)C2 [Example 269, N-(4′-(cyclopropanesulfonamido)-[1,1′-biphenyl]-3-yl)-N-((4-(3-cyclopropyl-1,2,4-oxadiazol-5-yl)bicyclo[2.2.2]octan-1-yl)methyl)-3-fluorobicyclo[1.1.1]pentane-1-carboxamide] | 0.142 µM |
